Consider 25 compounds from ChEMBL document CHEMBL3739345, “Design and synthesis of potent and selective inhibitors of BRD7 and BRD9 bromodomains” (Medchemcomm, 2015).

One assay concerns the target T1, Peregrin (Homo sapiens) (UniProt P55201).
T1 sequence (whole entry): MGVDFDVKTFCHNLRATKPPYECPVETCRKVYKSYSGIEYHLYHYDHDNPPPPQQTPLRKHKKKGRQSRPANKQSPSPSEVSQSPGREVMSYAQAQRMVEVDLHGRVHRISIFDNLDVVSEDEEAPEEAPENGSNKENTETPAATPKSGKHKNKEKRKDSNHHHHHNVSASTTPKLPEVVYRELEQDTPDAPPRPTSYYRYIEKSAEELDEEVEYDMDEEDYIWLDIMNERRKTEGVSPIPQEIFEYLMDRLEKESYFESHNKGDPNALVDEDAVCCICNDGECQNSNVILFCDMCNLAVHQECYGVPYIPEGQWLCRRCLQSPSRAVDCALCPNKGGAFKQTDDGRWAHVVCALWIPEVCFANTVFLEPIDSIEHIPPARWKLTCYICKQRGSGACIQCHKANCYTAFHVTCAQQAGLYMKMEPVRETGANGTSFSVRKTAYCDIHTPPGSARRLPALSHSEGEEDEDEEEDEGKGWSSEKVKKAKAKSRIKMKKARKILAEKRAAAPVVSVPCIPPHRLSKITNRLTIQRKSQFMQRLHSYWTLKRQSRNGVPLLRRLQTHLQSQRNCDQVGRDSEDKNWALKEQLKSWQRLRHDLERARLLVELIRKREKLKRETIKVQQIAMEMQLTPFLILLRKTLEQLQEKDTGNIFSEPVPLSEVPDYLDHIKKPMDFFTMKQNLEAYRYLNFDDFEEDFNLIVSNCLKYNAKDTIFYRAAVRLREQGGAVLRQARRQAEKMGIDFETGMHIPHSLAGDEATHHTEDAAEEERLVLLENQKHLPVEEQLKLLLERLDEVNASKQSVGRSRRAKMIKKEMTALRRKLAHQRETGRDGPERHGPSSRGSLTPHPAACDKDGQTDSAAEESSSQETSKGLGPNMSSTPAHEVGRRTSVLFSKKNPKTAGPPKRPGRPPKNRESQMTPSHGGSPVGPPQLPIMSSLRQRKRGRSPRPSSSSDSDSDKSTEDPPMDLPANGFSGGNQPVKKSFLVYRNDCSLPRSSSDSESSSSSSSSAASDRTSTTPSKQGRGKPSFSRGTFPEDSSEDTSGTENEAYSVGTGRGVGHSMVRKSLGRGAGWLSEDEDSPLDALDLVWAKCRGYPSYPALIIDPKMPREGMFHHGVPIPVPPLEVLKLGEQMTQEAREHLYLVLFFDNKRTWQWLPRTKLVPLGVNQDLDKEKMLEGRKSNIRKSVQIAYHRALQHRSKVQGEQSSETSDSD
The assay can be described thus: Binding affinity to human BRPF1B assessed as change in melting temperature at 10 uM by differential scanning fluorimetry. (In general: Differential scanning fluorimetry follows unfolding on heating by fluorescence.)

The target in assay [1] is T2, Bromodomain-containing protein 4 (Homo sapiens, UniProt O60885). The assay can be described thus: Binding affinity to human BRD4 assessed as change in melting temperature at 10 uM by differential scanning fluorimetry.
The target in assay [2] is T3, Bromodomain-containing protein 9 (Homo sapiens) (UniProt Q9H8M2).
T3 sequence (whole entry): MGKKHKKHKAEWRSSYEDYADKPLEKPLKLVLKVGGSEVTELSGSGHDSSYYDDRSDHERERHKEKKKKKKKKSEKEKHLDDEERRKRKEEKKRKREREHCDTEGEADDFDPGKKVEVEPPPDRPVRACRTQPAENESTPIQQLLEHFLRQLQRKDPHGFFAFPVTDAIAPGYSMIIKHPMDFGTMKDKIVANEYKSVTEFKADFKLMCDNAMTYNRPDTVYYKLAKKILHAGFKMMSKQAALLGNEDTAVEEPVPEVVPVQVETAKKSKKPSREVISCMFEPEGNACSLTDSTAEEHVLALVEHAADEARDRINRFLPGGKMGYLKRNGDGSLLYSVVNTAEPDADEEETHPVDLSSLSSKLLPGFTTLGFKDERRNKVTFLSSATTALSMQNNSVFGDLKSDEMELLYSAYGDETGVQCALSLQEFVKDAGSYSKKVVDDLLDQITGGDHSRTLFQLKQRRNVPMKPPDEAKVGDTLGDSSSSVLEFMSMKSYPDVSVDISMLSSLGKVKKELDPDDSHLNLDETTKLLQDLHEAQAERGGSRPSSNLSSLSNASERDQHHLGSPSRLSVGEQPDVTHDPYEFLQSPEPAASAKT
The assay can be described thus: Binding affinity to human BRD9 assessed as change in melting temperature at 10 uM by differential scanning fluorimetry.

For assay [3], the target named is Bromodomain adjacent to zinc finger domain protein 2B (Homo sapiens, UniProt Q9UIF8). Nature of the assay: Inhibition of human BAZ2B by alpha screen assay. In general terms: Alpha assays give light when donor and acceptor beads are brought close together.
Sequence of Bromodomain adjacent to zinc finger domain protein 2B (Q9UIF8 whole entry, the tested form may be a part): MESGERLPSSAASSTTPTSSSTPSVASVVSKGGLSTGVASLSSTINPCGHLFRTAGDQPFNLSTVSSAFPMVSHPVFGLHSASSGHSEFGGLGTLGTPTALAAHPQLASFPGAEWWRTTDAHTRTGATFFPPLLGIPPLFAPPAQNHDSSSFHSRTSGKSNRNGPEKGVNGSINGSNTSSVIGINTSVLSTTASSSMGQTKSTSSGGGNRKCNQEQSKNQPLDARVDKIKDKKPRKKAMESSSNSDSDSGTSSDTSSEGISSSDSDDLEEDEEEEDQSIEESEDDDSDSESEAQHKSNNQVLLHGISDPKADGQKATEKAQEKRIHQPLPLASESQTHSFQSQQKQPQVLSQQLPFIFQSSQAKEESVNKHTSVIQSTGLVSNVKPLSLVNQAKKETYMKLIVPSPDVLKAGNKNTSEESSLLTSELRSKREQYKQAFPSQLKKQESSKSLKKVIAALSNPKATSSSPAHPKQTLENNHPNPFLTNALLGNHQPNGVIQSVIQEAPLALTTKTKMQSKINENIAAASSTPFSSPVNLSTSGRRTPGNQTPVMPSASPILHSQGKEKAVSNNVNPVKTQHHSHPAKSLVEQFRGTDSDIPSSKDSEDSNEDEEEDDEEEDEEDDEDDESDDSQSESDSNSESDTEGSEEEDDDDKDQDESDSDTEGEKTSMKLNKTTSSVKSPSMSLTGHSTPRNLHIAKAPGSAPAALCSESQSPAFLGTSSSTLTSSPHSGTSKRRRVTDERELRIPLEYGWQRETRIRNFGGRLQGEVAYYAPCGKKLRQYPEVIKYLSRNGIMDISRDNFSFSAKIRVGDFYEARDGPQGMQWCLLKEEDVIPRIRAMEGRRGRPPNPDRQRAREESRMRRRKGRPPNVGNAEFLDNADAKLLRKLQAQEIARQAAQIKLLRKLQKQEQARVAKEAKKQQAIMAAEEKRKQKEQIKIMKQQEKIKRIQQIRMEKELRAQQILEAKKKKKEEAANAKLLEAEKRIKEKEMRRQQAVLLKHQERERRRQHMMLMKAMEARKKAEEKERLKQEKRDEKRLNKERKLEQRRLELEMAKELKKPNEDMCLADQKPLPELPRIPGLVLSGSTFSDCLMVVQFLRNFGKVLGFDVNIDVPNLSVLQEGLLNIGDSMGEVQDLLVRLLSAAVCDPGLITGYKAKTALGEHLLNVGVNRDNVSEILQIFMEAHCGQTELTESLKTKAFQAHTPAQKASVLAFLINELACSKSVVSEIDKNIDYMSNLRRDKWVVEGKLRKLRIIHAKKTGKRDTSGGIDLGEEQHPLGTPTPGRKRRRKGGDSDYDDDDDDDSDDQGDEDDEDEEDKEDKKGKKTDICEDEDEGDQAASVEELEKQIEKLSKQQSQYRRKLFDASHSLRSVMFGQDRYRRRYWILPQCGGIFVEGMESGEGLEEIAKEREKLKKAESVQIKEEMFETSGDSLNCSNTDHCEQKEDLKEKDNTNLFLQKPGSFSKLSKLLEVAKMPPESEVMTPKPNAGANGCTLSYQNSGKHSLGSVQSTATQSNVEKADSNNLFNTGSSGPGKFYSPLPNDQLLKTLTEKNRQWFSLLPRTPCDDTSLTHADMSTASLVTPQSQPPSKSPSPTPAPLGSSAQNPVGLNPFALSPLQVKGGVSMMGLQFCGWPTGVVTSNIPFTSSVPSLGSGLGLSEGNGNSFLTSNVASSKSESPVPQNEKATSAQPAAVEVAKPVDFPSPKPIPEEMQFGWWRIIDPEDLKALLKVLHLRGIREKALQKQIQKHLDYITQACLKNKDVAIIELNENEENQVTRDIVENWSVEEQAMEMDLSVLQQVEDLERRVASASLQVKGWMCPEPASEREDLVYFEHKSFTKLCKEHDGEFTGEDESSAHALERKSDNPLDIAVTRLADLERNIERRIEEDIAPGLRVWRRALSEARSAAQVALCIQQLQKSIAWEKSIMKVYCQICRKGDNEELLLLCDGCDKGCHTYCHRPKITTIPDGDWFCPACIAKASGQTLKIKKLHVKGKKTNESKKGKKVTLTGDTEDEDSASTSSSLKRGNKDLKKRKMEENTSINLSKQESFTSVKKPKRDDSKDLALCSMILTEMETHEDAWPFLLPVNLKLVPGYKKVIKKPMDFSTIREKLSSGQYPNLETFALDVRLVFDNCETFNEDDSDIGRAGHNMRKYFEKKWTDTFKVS
Assay [4] addresses T4, Bromodomain-containing protein 9 (Homo sapiens, UniProt Q9H8M2).
T4 sequence (Q9H8M2 whole entry): T3 sequence (whole entry)
Nature of the assay: Inhibition of human BRD9 by alpha screen assay.

For assay [5], the target named is T2, Bromodomain-containing protein 4. Nature of the assay: Inhibition of human BRD4 by alpha screen assay.
The target in a further assay is T5, Peregrin (Homo sapiens, UniProt P55201).
T5 sequence (P55201 whole entry): T1 sequence (whole entry)
Nature of the assay: Inhibition of human BRPF1B by alpha screen assay.

By ΔTm is commonly meant the shift of the melting midpoint relative to a reference. Turning to `CCCOc1ccn2c(C(C)=O)cc(-c3cc(C(=O)OC)ccn3)c2c1`, the shift in melting temperature (ΔTm) on Peregrin (Homo sapiens) is 0.09 °C; in assay [1] it was -0.24 °C; in assay [2], -0.03 °C.

In the case of `CN1CCN(c2ccn3c(C(=O)C4CC4)cc(-c4cccc5nccn45)c3c2)CC1`, the thermal shift (ΔTm) at Peregrin (Homo sapiens) is 0.085 °C; in assay [1] it was -0.65 °C; in assay [2], 0.76 °C.

Regarding `CCC(=O)c1cc(-c2cccc3nccn23)c2cc(N3CCN(C)CC3)ccn12`, the ΔTm was determined as 0.15 °C on Peregrin (Homo sapiens), 0.51 °C in assay [1] and 1.2 °C in assay [2].

As a reminder, the IC50 is the concentration needed to halve the response being measured. A lower IC50 goes with greater potency in that assay. On to `CC(=O)c1cc(-c2ccccn2)c2cc(N3CCOCC3)ccn12`, for which the half-maximal inhibitory concentration (IC50) in assay [3] is 3.16 µM; in assay [4] it was 501 nM. The ΔTm on Peregrin (Homo sapiens) came to 1.3 °C; in assay [1], 1.9 °C; in assay [2], 5.7 °C.

Turning to `CCC(=O)c1cc(-c2cccc3nccn23)c2cc(N3CCOCC3)ccn12`, the shift in melting temperature (ΔTm) at Peregrin (Homo sapiens) was determined as 0.2 °C; in assay [1] it was 0.98 °C; in assay [2], 3 °C.

`COc1cccc(-c2cc(C(C)=O)n3ccc(N4CCOCC4)cc23)n1`: the figures for the ΔTm (at Peregrin (Homo sapiens); in assay [1]; in assay [2]) were 0.53 °C, 0.82 °C and 1.3 °C, respectively.

Consider `CN1CCN(c2ccn3c(C(=O)C(F)(F)F)cc(-c4cccc5nccn45)c3c2)CC1`, for which the ΔTm on Peregrin (Homo sapiens) was 0.26 °C; in assay [1], -0.7 °C; in assay [2] it was 0.3 °C.

In the case of `CC(=O)c1cc(-c2cccc3nccn23)c2cc(N3CCN(C)CC3)ccn12`, the IC50 (in assay [5]; at Peregrin) was ≤ 1000 nM in each case. Besides, the ΔTm at Peregrin (Homo sapiens) was 3.5 °C; in assay [1], 4.1 °C; in assay [2], 7.5 °C.

Take `CCCOc1ccn2c(C(C)=O)cc(-c3cccc(Cl)n3)c2c1`: the results for the ΔTm (on Peregrin (Homo sapiens); in assay [1]; in assay [2]) were 0.18 °C, -0.6 °C and 0.085 °C, respectively.

On to `CC(=O)c1cc(-c2ncccn2)c2cc(N3CCOCC3)ccn12`, for which the figures for the shift in melting temperature (ΔTm) (on Peregrin (Homo sapiens); in assay [1]; in assay [2]) were 0.29 °C, 0.43 °C and 0.035 °C, respectively.

Turning to `CC(=O)c1cc(-c2ncc(C)cc2F)c2cc(N3CCOCC3)ccn12`, the ΔTm was 0.48 °C on Peregrin (Homo sapiens), -0.42 °C in assay [1] and -0.28 °C in assay [2].

Consider `CC(=O)c1cc(-c2ccc(Cl)cn2)c2cc(N3CCOCC3)ccn12`, for which the ΔTm is 0.22 °C on Peregrin (Homo sapiens), -0.39 °C in assay [1] and -0.23 °C in assay [2].

On to `CC(=O)c1cc(-c2cccc(Cl)n2)c2cc(N3CCOCC3)ccn12`, for which the shift in melting temperature (ΔTm) at Peregrin (Homo sapiens) was 0.34 °C; in assay [1], 0.28 °C; in assay [2], 0.81 °C.

For the compound `CC(=O)c1cc(-c2ccccn2)c2cc(N3CCNCC3)ccn12`, the ΔTm at Peregrin (Homo sapiens) came out at 1.7 °C; in assay [1] it was 4 °C; in assay [2], 5.7 °C.

Turning to `O=C(c1cc(-c2cccc3nccn23)c2cc(N3CCOCC3)ccn12)C(F)(F)F`, the ΔTm at Peregrin (Homo sapiens) is 0.2 °C; in assay [1], -0.4 °C; in assay [2] it was 0.26 °C.

Take `CC(=O)c1cc(-c2cccc3nccn23)c2cc(N3CCNCC3)ccn12`: the values for the ΔTm (on Peregrin (Homo sapiens); in assay [1]; in assay [2]) were 2.3 °C, 2.6 °C and 5.1 °C, respectively.

Take `CCCOc1ccn2c(C(C)=O)cc(-c3ccccn3)c2c1`: the IC50 in assay [3] is 2.51 µM; in assay [4] it was 2510 nM. The values for the thermal shift (ΔTm) (at Peregrin (Homo sapiens); in assay [1]; in assay [2]) were 0.32 °C, -0.35 °C and 1.1 °C, respectively.

Consider `CC(=O)c1cc(-c2nc3ccccc3s2)c2cc(N3CCOCC3)ccn12`, for which the figures for the thermal shift (ΔTm) (on Peregrin (Homo sapiens); in assay [1]; in assay [2]) were 0.04 °C, 0.55 °C and -0.3 °C, respectively.

On to `CCCCC(=O)c1cc(-c2cccc3nccn23)c2cc(N3CCN(C)CC3)ccn12`, for which the ΔTm on Peregrin (Homo sapiens) is 0.5 °C; in assay [1], -0.78 °C; in assay [2] it was 0.27 °C.

For `CC(C)C(=O)c1cc(-c2cccc3nccn23)c2cc(N3CCN(C)CC3)ccn12`, the thermal shift (ΔTm) is 0.71 °C on Peregrin (Homo sapiens), 0.19 °C in assay [1] and 1 °C in assay [2].

For the compound `CC(=O)c1cc(-c2ncccc2F)c2cc(N3CCOCC3)ccn12`, the ΔTm at Peregrin (Homo sapiens) was 0.71 °C; in assay [1] it was 0.41 °C; in assay [2], 1.3 °C.

As to `CC(=O)c1cc(-c2cc(C(=O)O)ccn2)c2cc(N3CCOCC3)ccn12`, the thermal shift (ΔTm) at Peregrin (Homo sapiens) is 0.01 °C; in assay [1] it was -0.24 °C; in assay [2], -0.06 °C.

In the case of `CC(=O)c1cc(-c2ccc(C(F)(F)F)cn2)c2cc(N3CCOCC3)ccn12`, the thermal shift (ΔTm) was 2.5 °C at Peregrin (Homo sapiens), -4 °C in assay [1] and -1.1 °C in assay [2].

In the case of `COC(=O)c1ccnc(-c2cc(C(C)=O)n3ccc(N4CCOCC4)cc23)c1`, the shift in melting temperature (ΔTm) on Peregrin (Homo sapiens) worked out at 0.04 °C; in assay [1], 0.075 °C; in assay [2], 0.35 °C.

Consider `CC(=O)c1cc(-c2cccc(C)n2)c2cc(N3CCOCC3)ccn12`, for which the IC50 in assay [3] is 15.8 µM; in assay [4] it was 501 nM. The figures for the ΔTm (at Peregrin (Homo sapiens); in assay [1]; in assay [2]) were 0.65 °C, 1.2 °C and 4.2 °C, respectively.
